Assay results as given in patent publication US7994209B2, “3-phenoxymethylpyrrolidine compounds” (Theravance, Inc., priority 2009, dated 2011).

Legend:
[1] = target: hNET (Homo sapiens, UniProt P23975); experiment: hNET membrane radioligand binding assay (3H-nisoxetine), Assay 1
[2] = target: hSERT (Homo sapiens, UniProt P31645); experiment: hSERT membrane radioligand binding assay (3H-citalopram), Assay 1; settings: SERT pKi, hSERT HEK-293 membranes, 1.0 nM 3H-citalopram; values given as lower bounds
Chain of hSERT (P31645 whole entry): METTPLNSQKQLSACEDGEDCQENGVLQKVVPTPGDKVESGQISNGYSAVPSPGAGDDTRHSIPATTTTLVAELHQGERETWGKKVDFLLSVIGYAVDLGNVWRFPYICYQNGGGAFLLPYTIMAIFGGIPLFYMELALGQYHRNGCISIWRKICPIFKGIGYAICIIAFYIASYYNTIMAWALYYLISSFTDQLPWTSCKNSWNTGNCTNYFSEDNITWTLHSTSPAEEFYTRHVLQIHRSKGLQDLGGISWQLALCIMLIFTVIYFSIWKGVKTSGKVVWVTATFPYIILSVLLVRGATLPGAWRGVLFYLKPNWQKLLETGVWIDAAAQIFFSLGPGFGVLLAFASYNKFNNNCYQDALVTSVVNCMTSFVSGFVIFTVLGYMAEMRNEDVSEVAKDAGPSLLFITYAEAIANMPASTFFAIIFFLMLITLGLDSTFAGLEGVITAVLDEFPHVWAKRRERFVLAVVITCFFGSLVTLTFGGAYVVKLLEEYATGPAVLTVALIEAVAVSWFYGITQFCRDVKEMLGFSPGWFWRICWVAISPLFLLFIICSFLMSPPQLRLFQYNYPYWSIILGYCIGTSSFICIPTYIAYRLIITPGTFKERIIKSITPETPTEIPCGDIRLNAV

Chain of hNET (P23975 whole entry): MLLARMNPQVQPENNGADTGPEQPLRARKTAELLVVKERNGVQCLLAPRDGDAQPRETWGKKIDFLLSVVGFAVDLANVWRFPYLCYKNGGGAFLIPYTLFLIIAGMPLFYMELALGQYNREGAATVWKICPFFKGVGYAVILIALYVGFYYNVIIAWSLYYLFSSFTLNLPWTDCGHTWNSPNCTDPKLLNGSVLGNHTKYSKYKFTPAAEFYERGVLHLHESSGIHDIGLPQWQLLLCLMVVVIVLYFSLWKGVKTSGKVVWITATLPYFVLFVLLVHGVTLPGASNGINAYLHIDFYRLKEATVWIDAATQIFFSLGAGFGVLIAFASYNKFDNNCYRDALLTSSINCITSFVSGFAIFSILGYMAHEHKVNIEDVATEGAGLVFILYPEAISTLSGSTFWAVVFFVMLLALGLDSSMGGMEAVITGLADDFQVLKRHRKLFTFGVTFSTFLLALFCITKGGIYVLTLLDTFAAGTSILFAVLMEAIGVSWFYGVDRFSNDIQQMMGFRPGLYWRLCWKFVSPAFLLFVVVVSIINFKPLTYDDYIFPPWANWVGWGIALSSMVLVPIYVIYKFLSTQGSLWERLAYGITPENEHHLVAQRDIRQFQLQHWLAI

In the case of `CC[C@@H](Oc1ccc(Cl)cc1)[C@@H]1CCNC1` [Example 2-3, (R)-3-[(R)-1-(4-Chlorophenoxy)propyl]pyrrolidine], the Ki [1] is reported as at most 100 nM and the Ki [2] is reported as at most 10 nM.

`CC[C@H](Oc1cccc(F)c1)[C@H]1CCNC1` [Example 2-9, (S)-3-[(S)-1-(3-Fluorophenoxy)propyl]pyrrolidine] gave a Ki [1] of at most 10 nM and a Ki [2] of at most 100 nM.

`CC[C@H](Oc1ccc(F)cc1)[C@H]1CCNC1` [Example 2-12, (S)-3-[(S)-1-(4-Fluorophenoxy)propyl]pyrrolidine] gave a Ki [1] of at most 100 nM and a Ki [2] of at most 100 nM.

Molecule `CC[C@H](Oc1cccc(C(F)(F)F)c1)[C@H]1CCNC1` [Example 2-16, (S)-3-[(S)-1-(3-Trifluoromethylphenoxy)propyl]pyrrolidine] has a Ki [1] of at most 100 nM and a Ki [2] of at most 10 nM.

Work on `CC[C@H](Oc1ccc(C(F)(F)F)cc1)[C@H]1CCNC1` [Example 2-17, (S)-3-[(S)-1-(4-Trifluoromethylphenoxy)propyl]pyrrolidine] yielded a Ki [1] of at most 100 nM and a Ki [2] of at most 10 nM.

`CC[C@@H](Oc1c(F)cccc1Cl)[C@H]1CCNC1` [Example 2-26, (S)-3-[(R)-1-(2-Chloro-6-fluorophenoxy)propyl]pyrrolidine] gave a Ki [1] of at most 10 nM and a Ki [2] of at most 100 nM.

`CC[C@H](Oc1cccc(Cl)c1Cl)[C@@H]1CCNC1` [Example 2-30, (R)-3-[(S)-1-(2,3-Dichlorophenoxy)propyl]pyrrolidine] gave a Ki [1] of at most 100 nM and a Ki [2] of at most 10 nM.

In the case of `CC[C@@H](Oc1ccc(Cl)cc1Cl)[C@@H]1CCNC1` [Example 2-33, (R)-3-[(R)-1-(2,4-Dichlorophenoxy)propyl]pyrrolidine], the Ki [1] is reported as at most 100 nM and the Ki [2] is reported as at most 10 nM.

For `CC[C@@H](Oc1cc(F)cc(F)c1Cl)[C@H]1CCNC1` [Example 2-36, (S)-3-[(R)-1-(2-Chloro-3,5-difluorophenoxy)propyl]pyrrolidine], the Ki [1] was at most 100 nM and the Ki [2] was at most 100 nM.

Molecule `CC[C@H](Oc1ccccc1F)[C@H]1CCNC1` [Example 2-46, (S)-3-[(S)-1-(2-Fluorophenoxy)propyl]pyrrolidine] has a Ki [1] of at most 10 nM and a Ki [2] of at most 100 nM.

`CC[C@H](Oc1c(F)cccc1F)[C@H]1CCNC1` [Example 2-49, (S)-3-[(S)-1-(2,6-Difluorophenoxy)propyl]pyrrolidine] gave a Ki [1] of at most 10 nM and a Ki [2] of at most 100 nM.

In the case of `CC[C@H](Oc1ccc(F)c(F)c1F)[C@H]1CCNC1` [Example 2-50, (S)-3-[(S)-1-(2,3,4-Trifluorophenoxy)propyl]pyrrolidine], the Ki [1] is reported as at most 100 nM and the Ki [2] is reported as at most 10 nM.

`CC[C@@H](Oc1c(F)ccc(Cl)c1F)[C@H]1CCNC1` [Example 2-53, (S)-3-[(R)-1-(3-Chloro-2,6-difluorophenoxy)propyl]pyrrolidine] was tested, and the Ki [1] was at most 10 nM and the Ki [2] was at most 100 nM.

Work on `CC[C@@H](Oc1c(Cl)ccc(C)c1F)[C@H]1CCNC1` [Example 2-54, (S)-3-[(R)-1-(6-Chloro-2-fluoro-3-methylphenoxy)propyl]pyrrolidine] yielded a Ki [1] of at most 10 nM and a Ki [2] of at most 100 nM.

In the case of `CC[C@H](Oc1c(F)c(F)cc(F)c1F)[C@H]1CCNC1` [Example 2-56, (S)-3-[(S)-1-(2,3,5,6-Tetrafluorophenoxy)propyl]pyrrolidine], the Ki [1] is reported as at most 10 nM and the Ki [2] is reported as at most 100 nM.

`CC[C@@H](Oc1ccc(Cl)cc1C)[C@H]1CCNC1` [Example 2-59, (S)-3-[(R)-1-(4-Chloro-2-methylphenoxy)propyl]pyrrolidine] was tested, and the Ki [1] was at most 100 nM and the Ki [2] was at most 10 nM.

Molecule `CC[C@H](Oc1ccc(Cl)cc1C)[C@@H]1CCNC1` [Example 2-61, (R)-3-[(S)-1-(4-Chloro-2-methylphenoxy)propyl]pyrrolidine] has a Ki [1] of at most 100 nM and a Ki [2] of at most 10 nM.

`CC[C@@H](Oc1ccccc1C)[C@H]1CCNC1` [Example 2-63, (S)-3-((R)-1-o-Tolyloxypropyl)pyrrolidine] showed a Ki [1] of at most 100 nM and a Ki [2] of at most 100 nM.

`CC[C@H](Oc1ccccc1OC)[C@H]1CCNC1` [Example 2-67, (S)-3-[(S)-1-(2-Methoxyphenoxy)propyl]pyrrolidine] was tested, and the Ki [1] was at most 10 nM and the Ki [2] was at most 100 nM.

`CC[C@H](Oc1cccc(Cl)c1C(F)(F)F)[C@@H]1CCNC1` [Example 2-73, (R)-3-[(S)-1-(3-Chloro-2-trifluoromethylphenoxy)propyl]pyrrolidine] gave a Ki [1] of at most 100 nM and a Ki [2] of at most 10 nM.

Molecule `CCC[C@H](Oc1ccc(Cl)cc1)[C@@H]1CCNC1` [Example 4-3, (R)-3-[(S)-1-(4-Chlorophenoxy)butyl]pyrrolidine] has a Ki [1] of at most 100 nM and a Ki [2] of at most 10 nM.

In the case of `CCC[C@@H](Oc1ccc(Cl)cc1)[C@@H]1CCNC1` [Example 4-4, (R)-3-[(R)-1-(4-Chlorophenoxy)butyl]pyrrolidine], the Ki [1] is reported as at most 100 nM and the Ki [2] is reported as at most 10 nM.

`CCC[C@H](Oc1cc(Cl)cc(Cl)c1)[C@@H]1CCNC1` [Example 4-8, (R)-3-[(S)-1-(3,5-Dichlorophenoxy)butyl]pyrrolidine] showed a Ki [1] of at most 100 nM and a Ki [2] of at most 10 nM.

In the case of `CCC[C@H](Oc1ccccc1Cl)[C@@H]1CCNC1` [Example 4-21, (R)-3-[(S)-1-(2-Chlorophenoxy)butyl]pyrrolidine], the Ki [1] is reported as at most 100 nM and the Ki [2] is reported as at most 100 nM.

For `CCC[C@@H](Oc1ccccc1Cl)[C@@H]1CCNC1` [Example 4-22, (R)-3-[(R)-1-(2-Chlorophenoxy)butyl]pyrrolidine], the Ki [1] was at most 10 nM and the Ki [2] was at most 100 nM.

`CCC[C@H](Oc1cccc(Cl)c1Cl)[C@@H]1CCNC1` [Example 4-24, (R)-3-[(S)-1-(2,3-Dichlorophenoxy)butyl]pyrrolidine] gave a Ki [1] of at most 100 nM and a Ki [2] of at most 10 nM.

Molecule `CCC[C@@H](Oc1ccc(Cl)cc1Cl)[C@H]1CCNC1` [Example 4-29, (S)-3-[(R)-1-(2,4-Dichlorophenoxy)butyl]pyrrolidine] has a Ki [1] of at most 100 nM and a Ki [2] of at most 10 nM.

Molecule `CCC[C@H](Oc1ccc(Cl)cc1Cl)[C@@H]1CCNC1` [Example 4-30, (R)-3-[(S)-1-(2,4-Dichlorophenoxy)butyl]pyrrolidine] has a Ki [1] of at most 100 nM and a Ki [2] of at most 10 nM.

`CCC[C@@H](Oc1ccc(Cl)cc1Cl)[C@@H]1CCNC1` [Example 4-31, (R)-3-[(R)-1-(2,4-Dichlorophenoxy)butyl]pyrrolidine] showed a Ki [1] of at most 100 nM and a Ki [2] of at most 10 nM.

With `CCC[C@@H](Oc1c(Cl)cccc1Cl)[C@H]1CCNC1` [Example 4-34, (S)-3-[(R)-1-(2,6-Dichlorophenoxy)butyl]pyrrolidine] the Ki [1] was at most 10 nM and the Ki [2] was at most 100 nM.

Molecule `CCC[C@H](Oc1c(Cl)cccc1Cl)[C@@H]1CCNC1` [Example 4-35, (R)-3-[(S)-1-(2,6-Dichlorophenoxy)butyl]pyrrolidine] has a Ki [1] of at most 100 nM and a Ki [2] of at most 100 nM.

Molecule `CCC[C@@H](Oc1c(Cl)cccc1Cl)[C@@H]1CCNC1` [Example 4-36, (R)-3-[(R)-1-(2,6-Dichlorophenoxy)butyl]pyrrolidine] has a Ki [1] of at most 100 nM and a Ki [2] of at most 100 nM.

`CCC[C@H](Oc1ccc(C)cc1Cl)[C@@H]1CCNC1` [Example 4-38, (R)-3-[(S)-1-(2-Chloro-4-methylphenoxy)butyl]pyrrolidine] gave a Ki [1] of at most 100 nM and a Ki [2] of at most 10 nM.

Molecule `CCC[C@H](Oc1cccc(Cl)c1C)[C@@H]1CCNC1` [Example 4-56, (R)-3-[(S)-1-(3-Chloro-2-methylphenoxy)butyl]pyrrolidine] has a Ki [1] of at most 100 nM and a Ki [2] of at most 10 nM.

In the case of `CCC[C@H](Oc1ccc(Cl)cc1C)[C@@H]1CCNC1` [Example 4-59, (R)-3-[(S)-1-(4-Chloro-2-methylphenoxy)butyl]pyrrolidine], the Ki [1] is reported as at most 10 nM and the Ki [2] is reported as at most 10 nM.

Work on `CCC[C@@H](Oc1ccc(Cl)cc1C)[C@H]1CCNC1` [Example 4-60, (S)-3-[(R)-1-(4-Chloro-2-methylphenoxy)butyl]pyrrolidine] yielded a Ki [1] of at most 100 nM and a Ki [2] of at most 10 nM.

`CCC[C@H](Oc1ccc(Cl)cc1C(F)(F)F)[C@H]1CCNC1` [Example 4-64, (S)-3-[(S)-1-(4-Chloro-2-trifluoromethylphenoxy)butyl]pyrrolidine] was tested, and the Ki [1] was at most 10 nM and the Ki [2] was at most 10 nM.

Work on `CCC[C@@H](Oc1ccc(Cl)cc1C(F)(F)F)[C@H]1CCNC1` [Example 4-65, (S)-3-[(R)-1-(4-Chloro-2-trifluoromethylphenoxy)butyl]pyrrolidine] yielded a Ki [1] of at most 100 nM and a Ki [2] of at most 100 nM.

For `CCC[C@H](Oc1ccc(Cl)cc1C(F)(F)F)[C@@H]1CCNC1` [Example 4-66, (R)-3-[(S)-1-(4-Chloro-2-trifluoromethylphenoxy)butyl]pyrrolidine], the Ki [1] was at most 100 nM and the Ki [2] was at most 10 nM.

`CCC[C@@H](Oc1ccc(Cl)cc1C(F)(F)F)[C@@H]1CCNC1` [Example 4-67, (R)-3-[(R)-1-(4-Chloro-2-trifluoromethylphenoxy)butyl]pyrrolidine] showed a Ki [1] of at most 100 nM and a Ki [2] of at most 10 nM.

With `CCC[C@H](Oc1cccc(Cl)c1C(F)(F)F)[C@H]1CCNC1` [Example 4-68, (S)-3-[(S)-1-(3-Chloro-2-trifluoromethylphenoxy)butyl]pyrrolidine] the Ki [1] was at most 10 nM and the Ki [2] was at most 10 nM.

Molecule `CCC[C@@H](Oc1cccc(Cl)c1C(F)(F)F)[C@H]1CCNC1` [Example 4-69, (S)-3-[(R)-1-(3-Chloro-2-trifluoromethylphenoxy)butyl]pyrrolidine] has a Ki [1] of at most 100 nM and a Ki [2] of at most 10 nM.

In the case of `CCC[C@H](Oc1cccc(Cl)c1C(F)(F)F)[C@@H]1CCNC1` [Example 4-70, (R)-3-[(S)-1-(3-Chloro-2-trifluoromethylphenoxy)butyl]pyrrolidine], the Ki [1] is reported as at most 100 nM and the Ki [2] is reported as at most 10 nM.

`CC(C)[C@H](Oc1ccccc1F)[C@H]1CCNC1` [Example 6-1, (S)-3-[(S)-1-(2-Fluorophenoxy)-2-methylpropyl]pyrrolidine] was tested, and the Ki [1] was at most 10 nM and the Ki [2] was at most 100 nM.

`CC(C)C(Oc1ccccc1F)C1CCNC1` (stereo not shown) [Example 6-2, 3-[1-(2-Fluorophenoxy)-2-methylpropyl]pyrrolidine] was tested, and the Ki [1] was at most 100 nM and the Ki [2] was at most 100 nM.

Molecule `CC(C)[C@@H](Oc1ccc(Cl)cc1Cl)[C@H]1CCNC1` [Example 6-22, (S)-3-[(R)-1-(2,4-Dichlorophenoxy)-2-methylpropyl]pyrrolidine] has a Ki [1] of at most 100 nM and a Ki [2] of at most 10 nM.

Molecule `CC(C)C(Oc1c(Cl)cccc1Cl)C1CCNC1` (stereo not shown) [Example 6-27, 3-[1-(2,6-Dichlorophenoxy)-2-methylpropyl]pyrrolidine] has a Ki [1] of at most 10 nM and a Ki [2] of at most 100 nM.
